Assay results as given in patent US9226916B2, “Pyrrolidine derivatives” (HOFFMANN-LA ROCHE INC., priority 2009, dated 2016).
pKi: −log10 of the molar value.

Target: T1, recombinant human NK3 receptor (Homo sapiens, UniProt P29371)
T1 construct: expressed in transfected cells; host or cells: HEK293 cells, transient expression; membranes
T1 sequence (P29371 1-465): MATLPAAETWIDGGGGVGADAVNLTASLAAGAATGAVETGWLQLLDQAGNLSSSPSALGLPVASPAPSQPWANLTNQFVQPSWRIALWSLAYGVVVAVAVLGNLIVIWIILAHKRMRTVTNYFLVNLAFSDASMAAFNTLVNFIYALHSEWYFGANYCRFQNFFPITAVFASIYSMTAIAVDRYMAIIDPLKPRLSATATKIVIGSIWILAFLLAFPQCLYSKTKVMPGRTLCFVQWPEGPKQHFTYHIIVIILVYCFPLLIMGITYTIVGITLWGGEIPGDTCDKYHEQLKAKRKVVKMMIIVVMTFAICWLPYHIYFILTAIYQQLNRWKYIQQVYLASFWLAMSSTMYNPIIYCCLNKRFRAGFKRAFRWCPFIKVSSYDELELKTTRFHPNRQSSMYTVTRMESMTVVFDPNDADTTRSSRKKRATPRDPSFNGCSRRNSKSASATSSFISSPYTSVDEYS
Test: [3H]SR142801 competition binding assay
Details: not given

Row | Molecule | pKi
1 | CN(C(=O)Oc1ccccc1F)[C@@H]1CN(C(=O)C2CCN(c3ccc(C#N)cn3)CC2)C[C@H]1c1ccc(Cl)cc1 [Example 212, [(3S,4R)-4-(4-Chloro-phenyl)-1-(5′-cyano-3,4,5,6-tetrahydro-2H-[1,2′]bipyridinyl-4-carbonyl)-pyrrolidin-3-yl]-methyl-carbamic acid 2-fluoro-phenyl ester] | 8.85
2 | COC1CC(C(=O)N2CCC(C(=O)N3C[C@@H](N(C)C(=O)Oc4ccc(F)cc4)[C@H](c4ccc(Cl)cc4)C3)CC2)C1 (stereo partly drawn) [Example 251, {(3S,4R)-4-(4-Chloro-phenyl)-1-[1-(3-methoxy-cyclobutanecarbonyl)-piperidine-4-carbonyl]-pyrrolidin-3-yl}-methyl-carbamic acid 4-fluoro-phenyl ester] | 8.66
3 | CN(C(=O)Oc1ccc(F)cc1)[C@H]1CN(C(=O)C2CCNCC2)C[C@@H]1c1ccc(Cl)c(Cl)c1 (racemic) [Example 72, rac-[(3R,4S)-4-(3,4-Dichloro-phenyl)-1-(piperidine-4-carbonyl)-pyrrolidin-3-yl]-methyl-carbamic acid 4-fluoro-phenyl ester] | 7.67
4 | CN(C(=O)Oc1ccc(F)cc1)[C@H]1CN(C(=O)C2CCN(C(=O)C3CC3)CC2)C[C@@H]1c1ccc(Cl)c(Cl)c1 (racemic) [Example 74, rac-[(3R,4S)-1-(1-Cyclopropanecarbonyl-piperidine-4-carbonyl)-4-(3,4-dichloro-phenyl)-pyrrolidin-3-yl]-methyl-carbamic acid 4-fluoro-phenyl ester] | 9.10
5 | COc1ccc(OC(=O)N(C)[C@H]2CN(C(=O)C3CCN(C(=O)C4(C)CC4)CC3)C[C@@H]2c2ccc(Cl)c(Cl)c2)cc1 (racemic) [Example 15, rac-{(3R,4S)-4-(3,4-Dichloro-phenyl)-1-[1-(1-methyl-cyclopropanecarbonyl)-piperidine-4-carbonyl]-pyrrolidin-3-yl}-methyl-carbamic acid p-methoxyphenyl ester] | 8.60
6 | CN(C(=O)Oc1ccc(F)cc1)[C@@H]1CN(C(=O)C2CCN(C3CC3)CC2)C[C@H]1c1ccc(Cl)cc1 [Example 150, [(3S,4R)-4-(4-Chloro-phenyl)-1-(1-cyclopropyl-piperidine-4-carbonyl)-pyrrolidin-3-yl]-methyl-carbamic acid 4-fluoro-phenyl ester] | 7.81
7 | Cc1cccc(OC(=O)N(C)[C@@H]2CN(C(=O)C3CCN(c4ccc(C#N)cn4)CC3)C[C@H]2c2ccc(Cl)cc2)c1 [Example 230, [(3S,4R)-4-(4-Chloro-phenyl)-1-(5′-cyano-3,4,5,6-tetrahydro-2H-[1,2′]bipyridinyl-4-carbonyl)-pyrrolidin-3-yl]-methyl-carbamic acid m-tolyl ester] | 8.57
8 | CN(C(=O)Oc1ccc(F)cc1)[C@@H]1CN(C(=O)C2CCN(c3ccc(C(=O)NC(C)(C)C)cn3)CC2)C[C@H]1c1ccc(Cl)cc1 (racemic) [Example 120, rac-[(3S,4R)-1-(5′-tert-Butylcarbamoyl-3,4,5,6-tetrahydro-2H-[1,2′]bipyridinyl-4-carbonyl)-4-(4-chloro-phenyl)-pyrrolidin-3-yl]-methyl-carbamic acid 4-fluoro-phenyl ester] | 8.80
9 | CN(C(=O)Oc1ccc(F)cc1)[C@H]1CN(C(=O)[C@H]2CC[C@](C)(O)CC2)C[C@@H]1c1ccc(Cl)c(Cl)c1 (racemic) [Example 52, rac-[(3R,4S)-4-(3,4-Dichloro-phenyl)-1-(trans-4-hydroxy-4-methyl-cyclohexanecarbonyl)-pyrrolidin-3-yl]-methyl-carbamic acid 4-fluoro-phenyl ester] | 8.09
10 | CN(C(=O)Oc1ccc(F)cc1)[C@H]1CN(C(=O)C2CCN(C(=O)OC(C)(C)C)CC2)C[C@@H]1c1ccc(Cl)c(Cl)c1 (racemic) [Example 66, rac-4-{(3S,4R)-3-(3,4-Dichloro-phenyl)-4-[(4-fluoro-phenoxycarbonyl)-methyl-amino]-pyrrolidine-1-carbonyl}-piperidine-1-carboxylic acid tert-butyl ester] | 9.10
11 | CC(=O)c1ccc(N2CCC(C(=O)N3C[C@@H](N(C)C(=O)Oc4ccc(F)cc4)[C@H](c4ccc(F)c(Cl)c4)C3)CC2)nc1 [Example 318, [(3S,4R)-1-(5′-Acetyl-3,4,5,6-tetrahydro-2H-[1,2′]bipyridinyl-4-carbonyl)-4-(3-chloro-4-fluoro-phenyl)-pyrrolidin-3-yl]-methyl-carbamic acid 4-fluoro-phenyl ester] | 9.15
12 | CN(C(=O)Oc1ccc(F)cc1)[C@@H]1CN(C(=O)C2CCN(c3cccc(C#N)n3)CC2)C[C@H]1c1ccc(Cl)cc1 [Example 189, [(3S,4R)-4-(4-Chloro-phenyl)-1-(6′-cyano-3,4,5,6-tetrahydro-2H-[1,2′]bipyridinyl-4-carbonyl)-pyrrolidin-3-yl]-methyl-carbamic acid 4-fluoro-phenyl ester] | 8.46
13 | CN(C(=O)Oc1ccc(F)cc1)[C@H]1CN(C(=O)C2CCOCC2)C[C@@H]1c1ccc(Cl)c(Cl)c1 (racemic) [Example 44, rac-[(3R,4S)-4-(3,4-Dichloro-phenyl)-1-(tetrahydro-pyran-4-carbonyl)-pyrrolidin-3-yl]-methyl-carbamic acid 4-fluoro-phenyl ester] | 8.54
14 | CN(C(=O)Oc1ccc(F)cc1)[C@@H]1CN(C(=O)C2CCN(C(=O)C3CCC(=O)NC3)CC2)C[C@H]1c1ccc(Cl)cc1 (stereo partly drawn) [Example 263, {(3S,4R)-4-(4-Chloro-phenyl)-1-[1-(6-oxo-piperidine-3-carbonyl)-piperidine-4-carbonyl]-pyrrolidin-3-yl}-methyl-carbamic acid 4-fluoro-phenyl ester] | 7.82
15 | CN(C(=O)OCC1CCCC1)[C@H]1CN(C(=O)C2CCN(C(=O)C3(C)CC3)CC2)C[C@@H]1c1ccc(Cl)c(Cl)c1 (racemic) [Example 32, rac-{(3R,4S)-4-(3,4-Dichloro-phenyl)-1-[1-(1-methyl-cyclopropanecarbonyl)-piperidine-4-carbonyl]-pyrrolidin-3-yl}-methyl-carbamic acid cyclopentylmethyl ester] | 8.85
16 | CN(C(=O)Oc1ccc(F)cc1)[C@H]1CN(C(=O)C2CCN(c3ccc(C#N)cn3)CC2)C[C@@H]1c1ccc(Cl)c(Cl)c1 (racemic) [Example 80, rac-[(3R,4S)-1-(5′-Cyano-3,4,5,6-tetrahydro-2H-[1,2′]bipyridinyl-4-carbonyl)-4-(3,4-dichloro-phenyl)-pyrrolidin-3-yl]-methyl-carbamic acid 4-fluoro-phenyl ester] | 9.52
17 | CN(C(=O)OCCC(C)(C)O)[C@H]1CN(C(=O)C2CCN(C(=O)C3(C)CC3)CC2)C[C@@H]1c1ccc(Cl)c(Cl)c1 (racemic) [Example 98, rac-{(3R,4S)-4-(3,4-Dichloro-phenyl)-1-[1-(1-methyl-cyclopropanecarbonyl)-piperidine-4-carbonyl]-pyrrolidin-3-yl}-methyl-carbamic acid 3-hydroxy-3-methyl-butyl ester] | 7.32
18 | CN(C(=O)OCC(C)(C)C)[C@H]1CN(C(=O)C2CCN(C(=O)C3(C)CC3)CC2)C[C@@H]1c1ccc(Cl)c(Cl)c1 (racemic) [Example 22, rac-{(3R,4S)-4-(3,4-Dichloro-phenyl)-1-[1-(1-methyl-cyclopropanecarbonyl)-piperidine-4-carbonyl]-pyrrolidin-3-yl}-methyl-carbamic acid 2,2-dimethyl-propyl ester] | 7.77
19 | COCC1(C(=O)N2CCC(C(=O)N3C[C@@H](N(C)C(=O)Oc4ccc(F)cc4)[C@H](c4ccc(Cl)c(Cl)c4)C3)CC2)CC1 [Example 277, {(3S,4R)-4-(3,4-Dichloro-phenyl)-1-[1-(1-methoxymethyl-cyclopropanecarbonyl)-piperidine-4-carbonyl]-pyrrolidin-3-yl}-methyl-carbamic acid 4-fluoro-phenyl ester] | 9.30

Same assay, conditions: hNK-3 receptor affinity; membranes from HEK293 cells transiently expressing recombinant human NK3 receptor; [3H]SR142801; Cheng-Prussoff; read-out: Data Ki

Row | Molecule | pKi
20 | CC(OC(=O)N(C)[C@@H]1CN(C(=O)C2CCN(c3ccc(C#N)cn3)CC2)C[C@H]1c1ccc(Cl)cc1)C1CC1 (stereo partly drawn) [Example 153, [(3S,4R)-4-(4-Chloro-phenyl)-1-(5′-cyano-3,4,5,6-tetrahydro-2H-[1,2′]bipyridinyl-4-carbonyl)-pyrrolidin-3-yl]-methyl-carbamic acid 1-cyclopropyl-ethyl ester] | 7.72
21 | COCCOC(=O)N(C)[C@@H]1CN(C(=O)C2CCN(c3ccc(C#N)cn3)CC2)C[C@H]1c1ccc(Cl)cc1 [Example 206, [(3S,4R)-4-(4-Chloro-phenyl)-1-(5′-cyano-3,4,5,6-tetrahydro-2H-[1,2′]bipyridinyl-4-carbonyl)-pyrrolidin-3-yl]-methyl-carbamic acid 2-methoxy-ethyl ester] | 7.04
22 | CN(C(=O)OC1(C)CCCC1)[C@@H]1CN(C(=O)C2CCN(c3ccc(C#N)cn3)CC2)C[C@H]1c1ccc(Cl)cc1 [Example 243, [(3S,4R)-4-(4-Chloro-phenyl)-1-(5′-cyano-3,4,5,6-tetrahydro-2H-[1,2′]bipyridinyl-4-carbonyl)-pyrrolidin-3-yl]-methyl-carbamic acid 1-methyl-cyclopentyl ester] | 7.33

Same assay, conditions: read-out: Data Ki

Row | Molecule | pKi
23 | rac-{(3R,4S)-4-(3,4-Dichloro-phenyl)-1-[1-(1-methyl-cyclopropanecarbonyl)-piperidine-4-carbonyl]-pyrrolidin-3-yl}-methyl-carbamic acid (S)-1-(tetrahydro-furan-2-yl)methyl ester and rac-{(3R,4S)-4-(3,4-Dichloro-phenyl)-1-[1-(1-methyl-cyclopropanecarbonyl)-piperidine-4-carbonyl]-pyrrolidin-3-yl}-methyl-carbamic acid (R)-1-(tetrahydro-furan-2-yl)methyl ester [Example 84] | 7.74
